Data as given in US11078188B2, “Dihydroquinoxaline bromodomain recognition protein inhibitor, preparation method and use thereof” (SHANGHAI INSTITUTE OF MATERIA MEDICA, CHINESE ACADEMY OF …, priority 2017, dated 2021).

Assays:
3A4 = 3A4 (Homo sapiens (Human), UniProt P08684); test: Direct inhibition test (DI test), CYP 3A4; type: in vitro ADME; details: human liver microsomes 0.2 mg/ml, 20 min; for Direct inhibition rate (%) 3A4, second value: second of two values a/b (two 3A4 probes midazolam, testosterone; assignment not given)
Method: (§1) The system which was 100 μl of human liver microsomes (final concentration: 0.2 mg/ml) was used for direct inhibition incubation. The system contained NADPH (final concentration: 1 mM), 10 μl compound, positive inhibitor cocktail (ketoconazole, 10 μl, quinidine 10 μl, sulfaphenazole 100 μl, naphthoflavone 10 μl, tranylcypromine 1000 μl), negative control 10 μl DMSO and mixed probe substrate (midazolam 10 μl, testosterone 100 μl, dextromethorphan 10 μl, diclofenac 20 μl, phenacetin 100 μl, mephenytoin 100 μl). The reaction was stopped after the system was incubated for 20 min. The relative activity of the enzyme was calculated by measuring the relative amount of production of the metabolite.

[1] = tested on: MM.1S nude mice xenografts; test: Growth of MM.1S nude mice xenografts in vivo; design: species or system Balb/C nude mice; details: for TV (mm^3, mean) d0: d0 (at start of administration)
Method: Balb/C nude mice (6 weeks, female, Beijing Huafukang Biotechnology Co., Ltd.) were purchased, and the animals were conditioned for about one week before the test. MM.1S cells were cultured in vitro, and the cells in logarithmic growth phase were resuspended in serum-free RPMI1640 medium to adjust the cell concentration. The cell suspension was subcutaneously injected into forefoot armpit of the Balb/C nude mice with a syringe, and each animal was injected with 150 μL (8.0×10^6/mouse). When the average tumor volume grew to about ˜150 mm^3, the animals were divided into 4 groups containing solvent control group, 50 mg/kg OTX-015 group, and 20 and 50 mg/kg compound 6 groups by the randomized block method and each group contained six animals. […] During the administration period, the tumor diameter was measured twice a week, the body weight of the animals was weighed, the living state of the animals was observed, and abnormal conditions were recorded.
The formula for calculating tumor volume (TV): TV=½×a×b^2, where a and b represent length and width, respectively.
The relative tumor volume (RTV) was calculated based on the measured results, and the calculation formula was: RTV=Vt/V0. Wherein V0 was the measured tumor volume at the time of administration by cage (ie, d0), and Vt was the tumor volume at each measurement.
The relative tumor proliferation rate T/C (%) was calculated based on the measured results, and the calculation formula was as follows: T/C (%)=(TRTV/CRTV)×100%, TRTV: treatment group RTV; CRTV: negative control group RTV.

CYP3A4 = CYP3A4 (Homo sapiens (Human), UniProt P08684); test: Direct inhibition test (DI test), CYP 3A4; type: in vitro ADME; details: human liver microsomes 0.2 mg/ml, first of two values a/b (two 3A4 probes midazolam, testosterone; assignment not given), read-out: Direct inhibition rate (%) 3A4, first value
Method: as §1

CYP2D6 = CYP2D6 (Homo sapiens (Human), UniProt P10635); test: Direct inhibition test (DI test), CYP 2D6; type: in vitro ADME; details: human liver microsomes 0.2 mg/ml, read-out: Direct inhibition rate (%) 2D6
Method: as §1

2C9 = 2C9 (Homo sapiens (Human), UniProt P11712); test: Direct inhibition test (DI test), CYP 2C9; type: in vitro ADME; details: human liver microsomes 0.2 mg/ml, 20 min
Method: as §1

1A2 = 1A2 (Homo sapiens (Human), UniProt P05177); test: Direct inhibition test (DI test), CYP 1A2; type: in vitro ADME; details: human liver microsomes 0.2 mg/ml, 20 min
Method: as §1

2C19 = 2C19 (Homo sapiens (Human), UniProt P33261); test: Direct inhibition test (DI test), CYP 2C19; type: in vitro ADME; details: human liver microsomes 0.2 mg/ml, 20 min
Method: as §1

Chain of 3A4 (P08684 whole entry): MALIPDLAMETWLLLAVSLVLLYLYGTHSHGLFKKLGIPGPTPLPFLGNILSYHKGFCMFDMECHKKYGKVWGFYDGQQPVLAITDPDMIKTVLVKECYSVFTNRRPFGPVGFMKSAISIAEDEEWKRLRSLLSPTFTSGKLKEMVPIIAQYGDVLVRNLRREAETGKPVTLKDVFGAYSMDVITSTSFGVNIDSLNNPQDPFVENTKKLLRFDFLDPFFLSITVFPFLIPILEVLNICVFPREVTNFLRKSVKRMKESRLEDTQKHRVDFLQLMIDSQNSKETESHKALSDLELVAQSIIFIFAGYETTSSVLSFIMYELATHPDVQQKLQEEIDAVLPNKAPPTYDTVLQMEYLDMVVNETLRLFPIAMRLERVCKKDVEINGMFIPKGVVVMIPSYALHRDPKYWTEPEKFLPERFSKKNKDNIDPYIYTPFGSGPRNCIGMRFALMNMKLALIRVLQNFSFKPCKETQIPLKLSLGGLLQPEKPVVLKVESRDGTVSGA
Chain of 2C9 (P11712 whole entry): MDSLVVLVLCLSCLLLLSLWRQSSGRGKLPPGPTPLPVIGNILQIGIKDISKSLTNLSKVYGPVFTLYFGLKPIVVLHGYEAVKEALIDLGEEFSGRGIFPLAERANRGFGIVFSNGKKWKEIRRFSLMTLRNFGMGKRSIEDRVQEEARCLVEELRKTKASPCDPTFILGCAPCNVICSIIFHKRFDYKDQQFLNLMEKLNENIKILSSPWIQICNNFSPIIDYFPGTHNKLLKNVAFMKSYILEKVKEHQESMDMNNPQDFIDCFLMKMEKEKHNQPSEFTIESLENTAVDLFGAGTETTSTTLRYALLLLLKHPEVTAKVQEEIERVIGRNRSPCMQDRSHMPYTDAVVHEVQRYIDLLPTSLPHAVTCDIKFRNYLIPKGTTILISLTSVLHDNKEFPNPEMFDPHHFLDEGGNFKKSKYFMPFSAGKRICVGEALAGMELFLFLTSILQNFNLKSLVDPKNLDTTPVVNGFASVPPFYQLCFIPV
Chain of 1A2 (P05177 whole entry): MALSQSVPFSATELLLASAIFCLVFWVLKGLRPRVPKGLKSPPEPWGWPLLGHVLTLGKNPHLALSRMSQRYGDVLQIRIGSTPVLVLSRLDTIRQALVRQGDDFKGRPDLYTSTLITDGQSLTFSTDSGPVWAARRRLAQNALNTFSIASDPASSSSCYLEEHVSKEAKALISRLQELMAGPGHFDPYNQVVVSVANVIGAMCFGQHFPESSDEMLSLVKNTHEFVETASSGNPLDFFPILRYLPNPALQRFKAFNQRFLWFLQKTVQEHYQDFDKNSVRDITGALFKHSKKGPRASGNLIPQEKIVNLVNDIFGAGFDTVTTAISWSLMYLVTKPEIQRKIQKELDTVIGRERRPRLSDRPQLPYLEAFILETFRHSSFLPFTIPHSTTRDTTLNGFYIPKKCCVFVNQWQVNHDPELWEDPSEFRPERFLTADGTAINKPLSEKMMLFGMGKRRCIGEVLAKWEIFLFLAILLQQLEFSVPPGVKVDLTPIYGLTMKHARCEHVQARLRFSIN
Chain of CYP3A4 (P08684 whole entry): as the sequence (P08684 whole entry) above
Chain of CYP2D6 (P10635 whole entry): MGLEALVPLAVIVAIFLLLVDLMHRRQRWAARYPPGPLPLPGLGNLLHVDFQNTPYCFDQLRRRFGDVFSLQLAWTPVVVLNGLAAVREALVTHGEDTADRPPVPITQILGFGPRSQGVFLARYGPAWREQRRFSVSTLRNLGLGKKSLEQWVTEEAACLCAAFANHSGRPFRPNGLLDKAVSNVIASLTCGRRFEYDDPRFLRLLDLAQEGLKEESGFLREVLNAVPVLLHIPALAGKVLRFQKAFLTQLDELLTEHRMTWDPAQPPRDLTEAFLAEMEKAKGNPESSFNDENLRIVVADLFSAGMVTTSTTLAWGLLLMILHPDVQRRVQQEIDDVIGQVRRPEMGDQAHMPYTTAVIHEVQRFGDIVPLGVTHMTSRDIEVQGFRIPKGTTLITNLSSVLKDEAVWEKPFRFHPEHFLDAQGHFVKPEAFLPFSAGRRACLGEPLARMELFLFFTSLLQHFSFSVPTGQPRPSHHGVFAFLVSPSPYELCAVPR
Chain of 2C19 (P33261 whole entry): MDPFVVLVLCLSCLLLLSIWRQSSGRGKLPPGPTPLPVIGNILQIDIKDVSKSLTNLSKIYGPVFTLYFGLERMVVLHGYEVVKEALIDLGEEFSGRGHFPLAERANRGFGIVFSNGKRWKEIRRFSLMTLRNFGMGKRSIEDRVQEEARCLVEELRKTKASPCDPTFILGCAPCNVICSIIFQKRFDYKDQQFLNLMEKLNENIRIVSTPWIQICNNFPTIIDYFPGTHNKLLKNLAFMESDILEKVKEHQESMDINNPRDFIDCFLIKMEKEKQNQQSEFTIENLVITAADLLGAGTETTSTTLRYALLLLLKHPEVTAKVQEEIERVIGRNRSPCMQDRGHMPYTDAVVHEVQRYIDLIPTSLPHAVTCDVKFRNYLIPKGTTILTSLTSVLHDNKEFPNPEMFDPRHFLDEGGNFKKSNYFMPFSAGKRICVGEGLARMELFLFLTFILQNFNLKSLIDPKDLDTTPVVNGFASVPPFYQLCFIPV

Q: `Cc1ccc(-n2nc(C(=O)N3CCN(C)CC3)nc2-c2ccc3c(c2)N(C2CCCC2)[C@H](C)C(=O)N3C)cc1` [Example 6] was tested. Which “Direct inhibition rate (%) 3A4, first value” (3A4; first of two values a/b (two 3A4 probes midazolam, testosterone; assignment not given)) did it give?
A: 22%

Q: And the “Direct inhibition rate (%) 3A4, second value” (3A4)?
A: 31%

Q: What about the “RTV (mean SD)” value ([1]; 20 mg/kg qd/14 po) of the same molecule?
A: 584.14

Q: And the “T/C (%)” value ([1]; 20 mg/kg qd/14 po)?
A: 48.32%

Q: What about the “TV (mm^3, mean) d0” value ([1]; 20 mg/kg qd/14 po) of the same molecule?
A: 184.28 mm^3

Q: And the “TV (mm^3, mean) d14” value ([1]; 20 mg/kg qd/14 po)?
A: 1024.45 mm^3

Q: What about the “RTV (mean SD)” value ([1]; 50 mg/kg qd/14 po) of the same molecule?
A: 417.16

Q: What about the “T/C (%)” value ([1]; 50 mg/kg qd/14 po) of the same molecule?
A: 34.51%

Q: And the “TV (mm^3, mean) d0” value ([1]; 50 mg/kg qd/14 po)?
A: 185.34 mm^3

Q: And the “TV (mm^3, mean) d14” value ([1]; 50 mg/kg qd/14 po)?
A: 660.39 mm^3

Q: What about the “inhibitory effect on the growth of MM.1S nude mice xenografts (in words)” value ([1]; oral administration of 50 mg/kg per day) of the same molecule?
A: significant inhibitory effect

Q: What does the source list for `Cc1ccc(-n2nc(C(=O)N3C[C@@H](C)N[C@@H](C)C3)nc2-c2ccc3c(c2)N(C2CCCC2)[C@H](C)C(=O)N3C)cc1` [Example 12]?
A: Direct inhibition rate (%) 3A4, second value (3A4): 28%; inhibition at 20 min (CYP3A4): 23%; inhibition at 20 min (CYP2D6): 4%; Direct inhibition rate (%) 2C9 (2C9): 28%; Direct inhibition rate (%) 1A2 (1A2): no; Direct inhibition rate (%) 2C19 (2C19): 12%
